One compound from patent US11154057B2, “Use of nootkatone to treat mosquito infestations” (EVOLVA SA, priority 2016, dated 2021) can be followed below.

The test system of data set [1] is Aedes aegypti larvae. In kind it is in vivo. From the text:
This example describes a laboratory bioassay in which groups of mosquito larvae were exposed to a nootkatone-containing composition to determine larval susceptibility to nootkatone.
One milliliter of a solution of nootkatone in ethanol was applied directly to 100 milliliters of water containing larvae, using a micropipette. One treatment condition used 3% (v/v) nootkatone in ethanol, and a second treatment condition used 1% (v/v) nootkatone in ethanol, for final concentrations of 0.03% or 0.01% (v/v), respectively. One milliliter of pure ethanol was used as a control. Four replicates of 25 larvae were tested per treatment. Clean, glass 600 mL laboratory beakers were used as test containers such that the surface area of the water to be treated was 54 cm^2.
Larvae were observed after 24 hours post-introduction to the test containers.
Readings were discontinued if treated mortality reached 100%, or control mortality exceeded 20%.

The test system of data set [2] is Aedes aegypti larvae. Nature of the data set: Liquefied nootkatone dripped onto the water surface as larvicide (Example No. 9, Treatment 1). In kind it is in vivo. Particulars: thirty one microliters liquefied nootkatone on 100 mL water; 25 larvae; 24 hours. The method, then:
In this example, nootkatone-containing compositions were evaluated for their ability to act as a larvicide by coating a water surface. Mixed sex 3rd and 4th instar Aedes aegypti larvae (Yellow fever mosquito) were tested.
98% pure nootkatone crystals were held at 38° C. until they liquefied. Previous testing has shown that 1 mL of a 3% solution of nootkatone dissolved in ethanol, when added to 100 mL of water containing mosquito larvae, kills 100% of larvae in less than 24 hours. This experiment tested whether an equivalent amount of liquefied nootkatone alone is able to kill larvae. Thirty one microliters of liquified nootkatone crystals were dripped onto the surface of 100 mL of water in a 600 mL clean, glass beaker containing 25 mixed sex 3rd and 4th instar Aedes aegypti larvae.

`C=C(C)[C@@H]1CCC2=CC(=O)C[C@@H](C)[C@]2(C)C1` [Nootkatone, nootkatone]: the “larvae killed, on average” value with Aedes aegypti larvae [1] (0.01% (v/v) nootkatone final, 24 hours of exposure, four replicates) is given as 80%. The compound also came in with a mortality with Aedes aegypti larvae [1] (0.01% (v/v) nootkatone final, after 48 hours) of 100%. For the same compound, in the data set on Aedes aegypti larvae [1] (0.03% (v/v) nootkatone final (1 mL of 3% in ethanol to 100 mL water), 54 cm^2, 24 hours post introduction), the “Dead (mortality), mean” value turned out to be 100%. Further, the “Affected, mean” value with Aedes aegypti larvae [1] (0.03% (v/v) nootkatone final, 1% ethanol, 100 mL water, 54 cm^2, 24 hours post introduction) stood at 100.0%. The “Morbidity (M), mean” value with Aedes aegypti larvae [1] (0.03% (v/v) nootkatone final, 1% ethanol, 100 mL water, 54 cm^2, 24 hours post introduction, four replicates of 25 larvae) stood at 0%. Moreover, in the data set on Aedes aegypti larvae [2], the “kill rates for mosquito larvae compared with nootkatone dissolved in ethanol” value was “not as high as previous testing”.
